The values that follow are results of earlier work, collected in patent publication US12268662B2, “Formulations comprising carbachol and brimonidine to enhance anti- presbyopia effects” (VISUS THERAPEUTICS, INC., priority 2021, dated 2025).

By log P is commonly meant a log measure of how a compound divides between an organic and an aqueous phase.

Test in series [1]: not given
This is another data set of the same source.

Test in series [2]: not given
This is another data set of the same source.

Structures are written as SMILES.

As for `C[N+](C)(C)CCOC(N)=O` [Carbachol], the “log P” value is −3.78. For the same compound, the solubility in series [1] is given as 1 gm/mL. For the same compound, in series [2], the pKa result is “about 15”.
